Source: patent US8106055B2, “Substituted amide compounds” (Gruenenthal GmbH, priority 2007, dated 2012)

Columns and labels:
[1] = biological target: T1, human bradykinin 1 receptor (B1R) (Homo sapiens, UniProt P46663); assay: Functional investigation on the human bradykinin 1 receptor (B1R), Ca2+ FLIPR assay in CHO K1 hB1R cells; format: cell-based; conditions: B1R antagonism human; test substance 10 μM; Ca2+ FLIPR, CHO K1 hB1R cells
T1 construct: expressed in transfected cells; host or cells: CHO K1 cells
T1 sequence (P46663 1-353): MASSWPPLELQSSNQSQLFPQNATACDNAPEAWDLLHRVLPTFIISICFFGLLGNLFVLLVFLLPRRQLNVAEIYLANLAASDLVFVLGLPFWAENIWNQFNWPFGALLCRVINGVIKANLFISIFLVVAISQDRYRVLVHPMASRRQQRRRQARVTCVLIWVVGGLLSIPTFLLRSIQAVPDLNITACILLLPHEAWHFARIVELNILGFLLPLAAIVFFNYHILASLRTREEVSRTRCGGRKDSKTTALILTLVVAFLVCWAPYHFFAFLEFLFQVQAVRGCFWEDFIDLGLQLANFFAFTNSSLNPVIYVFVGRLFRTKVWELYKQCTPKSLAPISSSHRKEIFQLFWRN
Summary of the method: (§1)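 Stably transfected CHO K1 cells loaded with Fluo-4; FLIPR Ca2+ fluorescence peak (ex 488/em 540 nm). Compound added first (agonism vs Lys-Des-Arg9-bradykinin ≥50 nM human, Des-Arg9-bradykinin 10 μM rat), then after 10-20 min agonist at EC80; antagonism as % inhibition, IC50 from concentration series, n=2-3, N≥2.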

[2] = biological target: T2, bradykinin 1 receptor (B1R) of the rat (Rattus norvegicus, UniProt P97583); assay: Functional investigation on the rat bradykinin 1 receptor (B1R), Ca2+ FLIPR assay in CHO K1 rB1R cells; format: cell-based; conditions: B1R antagonism rat; test substance 10 μM; Ca2+ FLIPR, CHO K1 rB1R cells
T2 construct: expressed in transfected cells; host or cells: CHO K1 cells
T2 sequence (P97583 1-337): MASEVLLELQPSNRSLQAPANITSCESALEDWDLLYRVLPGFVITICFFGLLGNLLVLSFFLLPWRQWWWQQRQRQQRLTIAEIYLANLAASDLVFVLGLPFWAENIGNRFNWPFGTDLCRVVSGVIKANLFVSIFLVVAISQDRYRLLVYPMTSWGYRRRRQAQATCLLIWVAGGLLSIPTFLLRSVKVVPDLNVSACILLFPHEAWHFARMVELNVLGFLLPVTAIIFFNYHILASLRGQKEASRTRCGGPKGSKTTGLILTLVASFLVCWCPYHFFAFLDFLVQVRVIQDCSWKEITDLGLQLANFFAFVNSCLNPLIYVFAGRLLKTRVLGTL
Summary of the method: as §1

SMILES | B1R Ant. h [10 μM] % Inhibition [1] [%] | B1R Ant. r [10 μM] % Inhibition [2] [%]
COc1cc(C)c(S(=O)(=O)N(C)CCOCC(=O)NCCC2CCC(C(c3ccc(Cl)cc3)N(C)C)CC2)c(C)c1 (centres unmarked) [Example 378] | 104 | 101
Cc1ccc(S(=O)(=O)N(C)CCOCC(=O)NC2CCC(C(c3ccc(F)cc3)N(C)C)CC2)cc1 (centres unmarked) [Example 448] | 0 | 12
CN(C)C(c1ccc(F)cc1)C1CCC(NC(=O)COC2CCN(S(=O)(=O)c3ccc(Cl)cc3)C2)CC1 (centres unmarked) [Example 370] | −14 | 3
COc1ccc(S(=O)(=O)N2CCCC2COCC(=O)NCCC2CCC(C(c3ccc(F)cc3)N(C)C)CC2)cc1 (centres unmarked) [Example 409] | 45 | 48
COc1cc(C)c(S(=O)(=O)N2CCCC(OCC(=O)NCC3CCC(C(c4ccc(Cl)cc4)N(C)C)CC3)C2)c(C)c1C (centres unmarked) [Example 449] | 25 | −7
CN(C)C(CCc1ccccc1)C1CCC(CNC(=O)COCCN(C)S(=O)(=O)c2ccc(Cl)cc2)CC1 (centres unmarked) [Example 445] | 66 | 46
CCN(CCOCC(=O)NCCC1CCC(C(c2ccc(Cl)cc2)N(C)C)CC1)S(=O)(=O)c1c(C)cc(OC)c(C)c1C (centres unmarked) [Example 434] | 47 | 58
COc1cc(C)c(S(=O)(=O)N2CCC(CCOCC(=O)NCCC3CCC(C(c4cccc(F)c4)N(C)C)CC3)CC2)c(C)c1C (centres unmarked) [Example 397] | 2 | −11
COc1cc(C)c(S(=O)(=O)N(CCOCC(=O)NC2CCC(C(c3cccc(F)c3)N(C)C)CC2)Cc2ccccc2)c(C)c1 (centres unmarked) [Example 372] | 65 | 22
Cc1cc(C)c(S(=O)(=O)N2CCC(OCC(=O)NCC3CCC(C(c4ccc(Cl)cc4)N(C)C)CC3)C2)c(C)c1 (centres unmarked) [Example 393] | 97 | 39
CN(C)C(c1ccc(F)cc1)C1CCC(CNC(=O)COC2CCN(S(=O)(=O)c3ccc(Cl)cc3Cl)C2)CC1 (centres unmarked) [Example 391] | 71 | 32
COc1ccc(S(=O)(=O)N2CCCCC2CCOCC(=O)NCCC2CCC(C(c3ccc(Cl)cc3)N(C)C)CC2)cc1 (centres unmarked) [Example 383] | 77 | 33
CN(C)C(c1ccc(Cl)cc1)C1CCC(CCNC(=O)COC2CCCN(S(=O)(=O)c3ccccc3)C2)CC1 (centres unmarked) [Example 395] | 27 | 15
CN(C)C(c1ccc(F)cc1)C1CCC(CNC(=O)COCCN(C)S(=O)(=O)c2ccc(F)cc2)CC1 (centres unmarked) [Example 400] | 3 | 9
COc1cc(C)c(S(=O)(=O)N(C)CCOCC(=O)NC2CCC(C(c3ccc(F)cc3)N(C)C)CC2)c(C)c1 (centres unmarked) [Example 422] | 104 | 104
CN(C)C(c1ccc(Cl)cc1)C1CCC(CNC(=O)COC2CCN(S(=O)(=O)c3ccc(Cl)cc3)C2)CC1 (centres unmarked) [Example 384] | 31 | 25
COc1cc(C)c(S(=O)(=O)N(CCOCC(=O)NC2CCC(C(c3cccc(F)c3)N(C)C)CC2)Cc2ccccc2)c(C)c1C (centres unmarked) [Example 419] | 37 | 34
CN(C)C(c1ccc(F)cc1)C1CCC(NC(=O)COCCN(C)S(=O)(=O)c2ccc(Cl)cc2)CC1 (centres unmarked) [Example 406] | 5 | 12
COc1cc(C)c(S(=O)(=O)N2CCN(CCOCC(=O)NCC3CCC(C(c4ccc(F)cc4)N(C)C)CC3)CC2)c(C)c1C (centres unmarked) [Example 366] | 55 | 16

SMILES | B1R Ant. h [10 μM] % Inhibition [1] [%] | B1R Ant. r [10 μM] % Inhibition [2] [%]
CN(C)C(c1ccc(F)cc1)C1CCC(CNC(=O)COCCN(C)S(=O)(=O)c2ccc(OC(F)(F)F)cc2)CC1 (centres unmarked) [Example 439] | 44 | 16
CN(C)C(c1cccc(F)c1)C1CCC(CCNC(=O)COC2CCN(S(=O)(=O)c3ccccc3)C2)CC1 (centres unmarked) [Example 376] | −17 | 12
CN(C)C(c1ccc(F)cc1)C1CCC(CNC(=O)COCCN2CCN(S(=O)(=O)c3ccccc3)CC2)CC1 (centres unmarked) [Example 433] | −4 | −12
COc1ccc(S(=O)(=O)N2CCCCC2COCC(=O)NCC2CCC(C(c3ccc(Cl)cc3)N(C)C)CC2)cc1OC (centres unmarked) [Example 367] | −9 | 2
COc1ccc(S(=O)(=O)N2Cc3ccccc3CC2COCC(=O)NCCC2CCC(C(c3ccc(F)cc3)N(C)C)CC2)cc1 (centres unmarked) [Example 389] | 36 | 21
CN(C)C(CCc1ccccc1)C1CCC(CNC(=O)COCC2CCCN2S(=O)(=O)c2ccc(Cl)c(Cl)c2)CC1 (centres unmarked) [Example 415] | 96 | 39
CN(C)C(c1ccc(F)cc1)C1CCC(CCNC(=O)COCCN(C)S(=O)(=O)c2c(Cl)cc(Cl)cc2Cl)CC1 (centres unmarked) [Example 386] | 104 | 20
COc1cc(C)c(S(=O)(=O)N2CCCC(OCC(=O)NCC3CCC(C(c4ccc(F)cc4)N(C)C)CC3)C2)c(C)c1C (centres unmarked) [Example 418] | 53 | 6
COc1cc(C)c(S(=O)(=O)N(CCOCC(=O)NCC2CCC(C(c3cccc(F)c3)N(C)C)CC2)Cc2ccccc2)c(C)c1C (centres unmarked) [Example 414] | 28 | 10
CN(C)C(c1ccc(Cl)cc1)C1CCC(CCNC(=O)COCC2CCCN(S(=O)(=O)c3ccccc3)C2)CC1 (centres unmarked) [Example 425] | 12 | 30
COc1ccc(S(=O)(=O)N2CCCCC2CCOCC(=O)NCCC2CCC(C(c3ccc(F)cc3)N(C)C)CC2)cc1 (centres unmarked) [Example 398] | 80 | 56
COc1cc(C)c(S(=O)(=O)N2CCC(OCC(=O)NCC3CCC(C(c4ccc(Cl)cc4)N(C)C)CC3)C2)c(C)c1C (centres unmarked) [Example 428] | 48 | 8
COc1cc(C)c(S(=O)(=O)N(CCOCC(=O)NCCC2CCC(C(c3cccc(F)c3)N(C)C)CC2)Cc2ccccc2)c(C)c1C (centres unmarked) [Example 436] | 8 | 10
CN(C)C(c1ccc(Cl)cc1)C1CCC(CCNC(=O)COCCN(C)S(=O)(=O)c2c(Cl)cc(Cl)cc2Cl)CC1 (centres unmarked) [Example 442] | 84 | 11
COc1ccc(S(=O)(=O)N2CCC(OCC(=O)NCCC3CCC(C(c4ccc(F)cc4)N(C)C)CC3)C2)cc1OC (centres unmarked) [Example 430] | −7 | 21
CN(C)C(c1ccc(Cl)cc1)C1CCC(CCNC(=O)COC2CCN(S(=O)(=O)c3ccccc3)C2)CC1 (centres unmarked) [Example 375] | 2 | 6
CN(C)C(c1cccc(F)c1)C1CCC(CCNC(=O)COC2CCN(S(=O)(=O)c3ccc(F)cc3)C2)CC1 (centres unmarked) [Example 407] | 4 | 10
CN(C)C(c1ccc(F)cc1)C1CCC(CNC(=O)COCCN(C)S(=O)(=O)c2cccc(C(F)(F)F)c2)CC1 (centres unmarked) [Example 390] | 55 | 16
